This test addresses T1, LRRK2 R1441C (Homo sapiens, UniProt Q5S007, R1441C).
T1 construct: purchased Thermo Fisher Scientific (Life Technologies) SelectScreen
The experiment in a line: SelectScreen Adapta. The format is biochemical. The protocol: The in vitro kinase selectivity of NU5455 was determined using the SelectScreen Broad Assay Panel (Thermo Fisher Scientific) involving activity and binding assays (Supplemental Table 1). […] Class IA PI3Ks were measured using the p85α subunit.
Kinase [ATP] % Assay Kinase [ATP] % Assay Kinase [ATP] % Assay Kinase [ATP] % Assay […]
SGK (SGK1) Km app 8.5 Z MAP4K2 (GCK) Km app 2.7 Z TLK2 n/a -0.3 L STK38 (NDR) n/a -5.9 L
MERTK (cMER) Km app 8.3 Z CDK2/cyclin A Km app 2.7 Z TGFBR1 (ALK5) n/a -0.4 L MATK (HYL) Km app -6.3 Z
FYN Km app 8.3 Z EPHA1 Km app 2.7 Z CLK3 Km app -0.5 Z ABL1 E255K Km app -6.6 Z
TEC n/a 8.1 L CDK2/cyclin E1 n/a 2.7 L MAP3K14 (NIK) n/a -0.5 L STK17A (DRAK1) n/a -6.6 L
KIT V654A n/a 8.1 L TESK2 n/a 2.7 L AKT3 (PKB gamma) Km app -0.5 Z JAK2 JH1 JH2 Km app -6.7 Z
ROS1 Km app 8.0 Z SPHK1 Km app 2.7 A MAP3K9 (MLK1) Km app -0.5 Z PRKACB (PRKAC beta) n/a -6.8 L
FGFR3 K650E Km app 7.9 Z AMPK A2/B1/G1 Km app 2.6 Z IKBKB (IKK beta) Km app -0.6 Z PDGFRA (PDGFR alpha) Km app -6.8 Z
RAF1 (cRAF) Y340D Y341D 100 7.9 Z DYRK3 Km app 2.6 Z CAMK2A (CaMKII alpha) Km app -0.6 Z NEK9 Km app -7.2 Z
PI4KA (PI4K alpha) 10 7.8 A CSNK1D (CK1 delta) Km app 2.6 Z PRKCB1 (PKC beta I) Km app -0.7 Z PDK1 Km app -7.3 Z
HIPK2 Km app 7.8 Z ACVR2A n/a 2.5 L TTK n/a -0.7 L RPS6KB1 (p70S6K) Km app -7.8 Z
CSK Km app 7.6 Z DDR2 T654M n/a 2.5 L ZAK n/a -0.7 L STK38L (NDR2) n/a -8.4 L
PRKCG (PKC gamma) Km app 7.6 Z JAK2 Km app 2.5 Z IKBKE (IKK epsilon) Km app -0.7 Z ABL1 G250E Km app -8.5 Z
SRMS (Srm) Km app 7.5 Z HIPK3 (YAK1) Km app 2.5 Z CAMK2G (CaMKII gamma) n/a -0.8 L PRKD1 (PKC mu) Km app -8.5 Z
YES1 Km app 7.4 Z AMPK (A1/B1/G2) n/a 2.4 L TLK1 n/a -0.8 L CDK5/p35 Km app -8.6 Z
RPS6KA5 (MSK1) Km app 7.4 Z MYO3B (MYO3 beta) n/a 2.3 L MAPK12 (p38 gamma) Km app -0.8 Z PDGFRA T674I Km app -8.9 Z
TNIK n/a 7.3 L PASK Km app 2.3 Z PRKCI (PKC iota) Km app -0.8 Z BLK Km app -8.9 Z
FER Km app 7.1 Z ACVRL1 (ALK1) n/a 2.3 L PKN2 (PRK2) n/a -1.0 L PRKD2 (PKD2) Km app -9.1 Z
CDK16 (PCTK1)/cyclin Y n/a 7.0 L EGFR (ErbB1) L861Q Km app 2.2 Z PIM1 Km app -1.0 Z CSNK1G2 (CK1 gamma 2) Km app -9.3 Z
MST4 Km app 6.9 Z RPS6KA3 (RSK2) Km app 2.1 Z CDK5/p25 Km app -1.1 Z ROCK1 Km app -9.5 Z
FLT1 (VEGFR1) Km app 6.5 Z STK23 (MSSK1) Km app 2.0 Z SRPK1 Km app -1.1 Z PRKCB2 (PKC beta II) Km app -9.6 Z
DYRK1A Km app 6.4 Z ALK R1275Q n/a 2.0 L BRSK1 (SAD1) Km app -1.1 Z CSNK1G1 (CK1 gamma 1) Km app -9.9 Z
PRKCD (PKC delta) Km app 6.2 Z TBK1 Km app 2.0 Z MAP3K3 (MEKK3) n/a -1.1 L ABL2 (Arg) Km app -10.3 Z
EGFR (ErbB1) Km app 6.0 Z ACVR1B (ALK4) Km app 2.0 Z AMPK A1/B1/G1 Km app -1.2 Z STK3 (MST2) Km app -10.3 Z
CDC7/DBF4 n/a 6.0 L CDK3/cyclin E1 n/a 1.9 L WNK3 n/a -1.2 L CAMK4 (CaMKIV) Km app -10.4 Z
JAK3 Km app 6.0 Z KDR (VEGFR2) Km app 1.8 Z LATS1 n/a -1.3 L MKNK1 (MNK1) Km app -10.7 Z
MAPK13 (p38 delta) Km app 5.8 Z ULK1 n/a 1.8 L DMPK n/a -1.5 L FLT3 ITD n/a -11.6 L
FRAP1 (mTOR) Km app 5.7 Z AURKB (Aurora B) Km app 1.7 Z CDK2/cyclin A1 n/a -1.6 L CHEK2 (CHK2) Km app -11.7 Z
KIT Y823D n/a 5.6 L LRRK2 Km app 1.7 A LIMK1 n/a -1.7 L LTK (TYK1) Km app -13.1 Z
ITK Km app 5.5 Z MAP2K3 (MEK3) n/a 1.6 L DYRK1B Km app -1.8 Z JAK2 JH1 JH2 V617F Km app -13.8 Z
KIT Km app 5.3 Z DAPK1 Km app 1.6 A DDR1 n/a -1.8 L EPHA8 Km app -13.8 Z
CDK7/cyclin H/MNAT1 Km app 5.3 A EPHA6 n/a 1.6 L BTK Km app -2.0 Z EGFR (ErbB1) T790M L858R Km app -14.1 Z
RET Km app 5.2 Z MAP4K1 (HPK1) n/a 1.6 L ADRBK1 (GRK2) Km app -2.0 Z MET M1250T Km app -14.5 Z […]

T1 sequence (Q5S007 whole entry R1441C): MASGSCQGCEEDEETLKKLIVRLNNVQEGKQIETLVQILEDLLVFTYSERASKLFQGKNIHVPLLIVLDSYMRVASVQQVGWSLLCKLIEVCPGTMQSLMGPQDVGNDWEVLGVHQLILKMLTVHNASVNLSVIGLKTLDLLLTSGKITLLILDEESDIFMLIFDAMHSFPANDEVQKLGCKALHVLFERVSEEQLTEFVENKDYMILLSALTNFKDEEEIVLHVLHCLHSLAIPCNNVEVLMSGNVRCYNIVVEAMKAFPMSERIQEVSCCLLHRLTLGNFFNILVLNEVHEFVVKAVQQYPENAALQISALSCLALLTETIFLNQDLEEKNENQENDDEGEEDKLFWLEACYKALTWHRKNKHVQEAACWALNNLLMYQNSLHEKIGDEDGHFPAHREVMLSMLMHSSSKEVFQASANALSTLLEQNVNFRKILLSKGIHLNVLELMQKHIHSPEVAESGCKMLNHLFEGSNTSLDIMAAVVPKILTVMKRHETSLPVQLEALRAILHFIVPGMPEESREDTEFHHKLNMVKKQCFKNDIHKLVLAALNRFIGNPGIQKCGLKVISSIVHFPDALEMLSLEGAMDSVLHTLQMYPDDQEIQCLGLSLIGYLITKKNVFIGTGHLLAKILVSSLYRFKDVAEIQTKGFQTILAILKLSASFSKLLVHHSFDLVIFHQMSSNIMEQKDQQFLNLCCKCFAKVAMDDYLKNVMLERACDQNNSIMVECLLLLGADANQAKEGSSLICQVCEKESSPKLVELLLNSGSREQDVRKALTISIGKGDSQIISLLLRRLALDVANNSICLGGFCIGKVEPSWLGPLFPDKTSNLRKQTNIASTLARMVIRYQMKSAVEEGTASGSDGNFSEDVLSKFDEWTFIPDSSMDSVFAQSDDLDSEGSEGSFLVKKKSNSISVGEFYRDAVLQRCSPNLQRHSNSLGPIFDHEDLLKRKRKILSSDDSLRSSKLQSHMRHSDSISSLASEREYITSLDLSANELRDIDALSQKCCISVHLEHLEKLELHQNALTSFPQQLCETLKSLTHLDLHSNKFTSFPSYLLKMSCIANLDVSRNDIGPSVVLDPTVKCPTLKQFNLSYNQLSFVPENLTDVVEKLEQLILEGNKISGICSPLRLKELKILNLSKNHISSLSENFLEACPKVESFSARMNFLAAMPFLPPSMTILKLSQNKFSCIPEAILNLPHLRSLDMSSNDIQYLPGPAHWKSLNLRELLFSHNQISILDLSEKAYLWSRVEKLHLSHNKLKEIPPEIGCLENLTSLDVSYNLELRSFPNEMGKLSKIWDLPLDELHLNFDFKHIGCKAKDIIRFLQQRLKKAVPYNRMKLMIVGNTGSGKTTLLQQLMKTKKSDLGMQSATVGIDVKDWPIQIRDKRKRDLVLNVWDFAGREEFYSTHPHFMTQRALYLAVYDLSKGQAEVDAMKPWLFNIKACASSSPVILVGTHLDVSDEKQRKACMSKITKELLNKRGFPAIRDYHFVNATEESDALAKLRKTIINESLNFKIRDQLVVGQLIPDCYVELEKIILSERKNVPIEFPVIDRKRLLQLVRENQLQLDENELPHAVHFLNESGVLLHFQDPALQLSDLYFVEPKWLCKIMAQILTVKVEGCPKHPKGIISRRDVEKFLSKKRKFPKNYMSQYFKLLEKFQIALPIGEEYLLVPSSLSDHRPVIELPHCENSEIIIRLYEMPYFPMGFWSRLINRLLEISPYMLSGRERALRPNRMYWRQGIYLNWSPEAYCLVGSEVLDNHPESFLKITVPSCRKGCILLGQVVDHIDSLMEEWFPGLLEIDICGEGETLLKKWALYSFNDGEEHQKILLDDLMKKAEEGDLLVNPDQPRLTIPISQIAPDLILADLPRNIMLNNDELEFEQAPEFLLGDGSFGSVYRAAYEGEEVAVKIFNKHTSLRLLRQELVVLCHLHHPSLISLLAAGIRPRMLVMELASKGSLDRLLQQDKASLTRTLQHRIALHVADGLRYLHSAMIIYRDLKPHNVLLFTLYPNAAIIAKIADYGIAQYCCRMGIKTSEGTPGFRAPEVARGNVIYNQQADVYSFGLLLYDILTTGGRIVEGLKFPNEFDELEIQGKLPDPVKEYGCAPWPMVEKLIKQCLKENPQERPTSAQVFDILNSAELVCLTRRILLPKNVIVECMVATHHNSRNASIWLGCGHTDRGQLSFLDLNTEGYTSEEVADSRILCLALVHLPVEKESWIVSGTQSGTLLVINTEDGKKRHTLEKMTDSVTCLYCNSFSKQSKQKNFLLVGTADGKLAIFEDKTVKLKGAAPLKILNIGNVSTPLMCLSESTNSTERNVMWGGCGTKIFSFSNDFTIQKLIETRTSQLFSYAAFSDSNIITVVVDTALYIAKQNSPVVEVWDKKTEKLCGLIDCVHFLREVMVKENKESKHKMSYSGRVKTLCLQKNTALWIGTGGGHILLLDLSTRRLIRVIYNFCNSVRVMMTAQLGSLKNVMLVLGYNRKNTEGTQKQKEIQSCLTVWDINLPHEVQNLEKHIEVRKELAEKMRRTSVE

In general, inhibition refers to the percentage by which the read-out fell short of the control. Low values mean a response near the control, high ones a response far below the control. Turning to `CN(C(=O)CN1CCOCC1)c1ccc2sc3c(-c4cccc5c(=O)cc(N6CC7CCC(C6)O7)oc45)cccc3c2c1` [NU5455], 1 µM produced 1.8% inhibition.

For the origin of these results see article PMC6934184, “Selective DNA-PKcs inhibition extends the therapeutic index of localized radiotherapy and chemotherapy” (The Journal of Clinical Investigation, 2019).
